Measured values reported in ChEMBL document CHEMBL1201862, “PubChem BioAssay data set” (2004).
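These data come from cells grown in 96-well plates and exposed to compound for 48 hours at five concentrations. Abbreviation: GI50, concentration required for 50% inhibition of growth.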 Activity calls are given as the source filed them. No stated cut-off is given here; in the data, active = GI50 up to about 1.1 µM and inactive = higher. Where a SMILES comes first, the peptide text is derived from it. [ ]: non-standard residue; d: D form. The star is where a group is joined. NMeAc5c = CNC1(C(=O)O)CCCC1; Boc = CC(C)(C)OC(=O)*; OBn = c1ccc(CO*)cc1

How the values were obtained:
Assay in all cases: NCI-60 cell line screen, 48 h
[1] = system: OVCAR-8
[2] = system: OVCAR-4
[3] = system: OVCAR-3
[4] = system: COLO 205
[5] = system: RPMI-8226
[6] = system: NCI-H23
[7] = system: EKVX
[8] = system: SF-268
[9] = system: UACC-257
[10] = system: HCC 2998
[11] = system: K562
[12] = system: LOX IMVI
[13] = system: TK-10
[14] = system: BT-549
[15] = system: SNB-75
[16] = system: UO-31
[17] = system: MDA-N
[18] = system: SF-295
[19] = system: HL-60
[20] = system: U-251

SMILES | GI50 [1] | GI50 [2] | GI50 [3] | GI50 [4] | GI50 [5] | GI50 [6] | GI50 [7] | GI50 [8] | GI50 [9] | GI50 [10] | GI50 [11] | GI50 [12] | GI50 [13] | GI50 [14] | GI50 [15] | GI50 [16] | GI50 [17] | GI50 [18] | GI50 [19] | GI50 [20]
COCCNC1CCC2(SCCS2)c2[nH]c3ccccc3c21 (stereo not given) | 46.1 µM (inactive) | 97.1 µM (inactive) | 27.2 µM (inactive) | 22.2 µM (inactive) | 15 µM (inactive) | > 100 µM (inactive) | > 100 µM (inactive) | > 100 µM (inactive) | 18 µM (inactive) | 67.6 µM (inactive) | 32.2 µM (inactive) | 16.5 µM (inactive) | 22.5 µM (inactive) | 20.6 µM (inactive) | 90.8 µM (inactive) | > 10 µM (inactive) | 22.9 µM (inactive) | 50.4 µM (inactive) | 18.9 µM (inactive) | 37.2 µM (inactive)
CCN(CC)C1Oc2cc3c(cc2C(c2cc(OC)c(OC)c(OC)c2)C1C)OCO3 (stereo not given) | 1.39 µM (inactive) | 16.1 µM (inactive) | 0.387 µM (active) | 0.875 µM (active) | 0.927 µM (active) | 1.53 µM (inactive) | 10.4 µM (inactive) | 3.61 µM (inactive) | 2.88 µM (inactive) | 0.809 µM (active) | 0.308 µM (active) | 0.762 µM (active) | 26.5 µM (inactive) | 7.1 µM (inactive) | 4.25 µM (inactive) | 2.56 µM (inactive) | 0.0836 µM (active) | 0.441 µM (active) | 0.242 µM (active) | 0.6 µM (active)
O=C1C=CC(=O)c2c1ccc1c3ccccc3n(CCCCCn3c4ccccc4c4ccc5c(c43)C(=O)C=CC5=O)c21 | 17.7 µM (inactive) | > 10 µM (inactive) | 17.9 µM (inactive) | 15.2 µM (inactive) | 4.14 µM (inactive) | 16 µM (inactive) | 33.3 µM (inactive) | 15.7 µM (inactive) | 16.3 µM (inactive) | 33 µM (inactive) | 2.06 µM (inactive) | 16 µM (inactive) | 12.4 µM (inactive) | 32.4 µM (inactive) | 14.9 µM (inactive) | 7.87 µM (inactive) | 20.3 µM (inactive) | > 100 µM (inactive) | 0.875 µM (active) | 20 µM (inactive)
C=C1C(=O)OC2CC1C(O)C/C(C)=C/CC/C(C)=C/C(O)CC2C (stereo not given) | 1.89 µM (inactive) | 2.45 µM (inactive) | 2.7 µM (inactive) | 1.49 µM (inactive) | 1.32 µM (inactive) | 2.44 µM (inactive) | 1.87 µM (inactive) | 2.79 µM (inactive) | 2.4 µM (inactive) | 1.83 µM (inactive) | 1 µM (active) | 1.29 µM (inactive) | 2.05 µM (inactive) | 2.31 µM (inactive) | 3.43 µM (inactive) | 2.33 µM (inactive) | 1.19 µM (inactive) | 13.3 µM (inactive) | 0.262 µM (active) | 4.68 µM (inactive)
Cc1ccc(S(=O)ON2CCC(C(=O)O)(c3ccccc3)CC2)cc1 (stereo not given) | > 100 µM (inactive) | > 100 µM (inactive) | > 100 µM (inactive) | > 100 µM (inactive) | > 100 µM (inactive) | > 100 µM (inactive) | 33.3 µM (inactive) | > 100 µM (inactive) | > 100 µM (inactive) | > 100 µM (inactive) | > 100 µM (inactive) | > 100 µM (inactive) | > 100 µM (inactive) | > 100 µM (inactive) | > 100 µM (inactive) | > 100 µM (inactive) | > 100 µM (inactive) | > 100 µM (inactive) | > 100 µM (inactive) | > 100 µM (inactive)
CN(C(=O)C(Cc1ccccc1)NC(=O)OC(C)(C)C)C1(C(=O)NC(Cc2ccccc2)C(=O)OCc2ccccc2)CCCC1 (stereo not drawn) (Boc-Phe-[NMeAc5c]-Phe-OBn; configuration not given here) | 38 µM (inactive) | > 100 µM (inactive) | 31.8 µM (inactive) | 22.3 µM (inactive) | 22.5 µM (inactive) | 43.7 µM (inactive) | 59.6 µM (inactive) | 35.4 µM (inactive) | 57.3 µM (inactive) | 77.4 µM (inactive) | 29.8 µM (inactive) | 45.1 µM (inactive) | 34.8 µM (inactive) | > 100 µM (inactive) | > 100 µM (inactive) | 25.9 µM (inactive) | 23.2 µM (inactive) | 42.6 µM (inactive) | 24.9 µM (inactive) | 20.9 µM (inactive)
O=P(Oc1ccc(Cl)cc1)(Oc1ccc(Cl)cc1)N1CC1 | > 10 µM (inactive) | > 10 µM (inactive) | > 10 µM (inactive) | > 10 µM (inactive) | > 10 µM (inactive) | > 10 µM (inactive) | > 10 µM (inactive) | > 10 µM (inactive) | 4.38 µM (inactive) | > 10 µM (inactive) | > 10 µM (inactive) | > 10 µM (inactive) | > 10 µM (inactive) | > 10 µM (inactive) | > 10 µM (inactive) | > 10 µM (inactive) | > 10 µM (inactive) | > 10 µM (inactive) | > 10 µM (inactive) | > 10 µM (inactive)
COc1ccc(Nc2cc(O)nc(O)n2)cc1 | > 100 µM (inactive) | > 100 µM (inactive) | > 100 µM (inactive) | > 100 µM (inactive) | > 100 µM (inactive) | > 100 µM (inactive) | > 100 µM (inactive) | > 100 µM (inactive) | > 100 µM (inactive) | > 100 µM (inactive) | > 100 µM (inactive) | > 100 µM (inactive) | > 100 µM (inactive) | > 100 µM (inactive) | 84.3 µM (inactive) | > 100 µM (inactive) | > 100 µM (inactive) | > 100 µM (inactive) | > 100 µM (inactive) | > 100 µM (inactive)
CCCCN(C)C(=O)C1=C(C)NC(C)=C(C(=O)N(C)CCCC)C1 | > 100 µM (inactive) | > 100 µM (inactive) | > 100 µM (inactive) | > 100 µM (inactive) | > 100 µM (inactive) | > 100 µM (inactive) | > 100 µM (inactive) | > 100 µM (inactive) | > 100 µM (inactive) | > 100 µM (inactive) | 54.3 µM (inactive) | > 100 µM (inactive) | > 100 µM (inactive) | > 100 µM (inactive) | 50.7 µM (inactive) | 61.1 µM (inactive) | > 100 µM (inactive) | > 100 µM (inactive) | 54.1 µM (inactive) | > 100 µM (inactive)
CCOC(=O)Cc1nc2cc(F)c(F)cc2[nH]c1=O | > 100 µM (inactive) | > 100 µM (inactive) | > 100 µM (inactive) | > 100 µM (inactive) | > 100 µM (inactive) | > 100 µM (inactive) | > 100 µM (inactive) | > 100 µM (inactive) | > 100 µM (inactive) | > 100 µM (inactive) | > 100 µM (inactive) | > 100 µM (inactive) | > 100 µM (inactive) | > 100 µM (inactive) | > 100 µM (inactive) | > 100 µM (inactive) | > 100 µM (inactive) | > 100 µM (inactive) | > 100 µM (inactive) | > 100 µM (inactive)
